Source: US6399629B1, “Efflux pump inhibitors” (priority 1998, dated 2002)

Test system: Pseudomonas aeruginosa PAM1001
Experiment: checkerboard assay (broth microdilution): levofloxacin MIC in presence of efflux pump inhibitor
Type: cell-based
Method in brief: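 Checkerboard broth microdilution in Mueller Hinton Broth against P. aeruginosa PAM1001 (5×10^5 CFU/mL, early-log inoculum), levofloxacin and efflux pump inhibitor (up to 40 μg/mL) diluted along crossing axes. Plates incubated 20 h at 35° C; growth read at 650 nm and visually. Potentiation scored as reduced levofloxacin MIC.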

Compound | Levofloxacin MIC Against P. aerugiuosa PAM1001 in Presence of Efflux Pump Inhibitor (EPI), Minimum Inhibitory Concentration (EPI Conc. 0 μg/mL) | Levofloxacin MIC Against P. aerugiuosa PAM1001 in Presence of Efflux Pump Inhibitor (EPI), Minimum Inhibitory Concentration (EPI Conc. 0.625 μg/mL) | Levofloxacin MIC Against P. aerugiuosa PAM1001 in Presence of Efflux Pump Inhibitor (EPI), Minimum Inhibitory Concentration (EPI Conc. 1.25 μg/mL) | Levofloxacin MIC Against P. aerugiuosa PAM1001 in Presence of Efflux Pump Inhibitor (EPI), Minimum Inhibitory Concentration (EPI Conc. 2.5 μg/mL) | Levofloxacin MIC Against P. aerugiuosa PAM1001 in Presence of Efflux Pump Inhibitor (EPI), Minimum Inhibitory Concentration (EPI Conc. 5 μg/ mL) | Levofloxacin MIC Against P. aerugiuosa PAM1001 in Presence of Efflux Pump Inhibitor (EPI), Minimum Inhibitory Concentration (EPI Conc. 10 μg/mL) | Levofloxacin MIC Against P. aerugiuosa PAM1001 in Presence of Efflux Pump Inhibitor (EPI), Minimum Inhibitory Concentration (EPI Conc. 20 μg/mL) | Levofloxacin MIC Against P. aerugiuosa PAM1001 in Presence of Efflux Pump Inhibitor (EPI), Minimum Inhibitory Concentration (EPI Conc. 40 μg/mL)
NCCC(=O)N[C@H]1CN[C@H](C(=O)N[C@H](CCc2ccccc2)C(=O)Nc2cnc3ccccc3c2)C1 [Compound M6, (2S,4R)-4-[3-(Aminopropionamido])-N-[(1R)-3-phenyl-1-(3-quinolylcarbamoyl)propyl]-2-pyrrolidinecarboxamide] | 4 mg/L | 4 mg/L | 4 mg/L | 4 mg/L | 4 mg/L | 2 mg/L | 0.06 mg/L | 0.015 mg/L
NC[C@@H]1CN[C@@H](COc2ccc3ccccc3n2)C1 [Compound M71, (2R,4R)-4-(Aminomethyl)-2 (2-quiolyloxymethyl)pyrrolidne] | 4 mg/L | 4 mg/L | 4 mg/L | 4 mg/L | 4 mg/L | 4 mg/L | 2 mg/L | 0.5 mg/L
CC(N)C(=O)N[C@H]1CN[C@H](C(=O)N[C@H](CCc2ccccc2)C(=O)Nc2cnc3ccccc3c2)C1 (stereo partly drawn) [Compound M4, (2S,4R)-4-(2-Aminopropionamido]-N-[(1R)-3-pheyl-1-(3-quinolylcarbamoyl)propyl]-2-pyrrolidinecarboxamide] | 4 mg/L | 4 mg/L | 4 mg/L | 4 mg/L | 2 mg/L | 2 mg/L | 1 mg/L | 0.015 mg/L
NCC(=O)N[C@H]1CN[C@H](C(=O)N[C@H](Cc2ccc(F)cc2)C(=O)Nc2cnc3ccccc3c2)C1 [Compound M21, (2S,4R)-4-(2-Aminoacetamido)-N-[(1R)-2-(4-fluorophenyl)-1-(3-quinolylcarbamoyl)ethyl]-2-pyrrolidnecarboxamide] | 4 mg/L | 4 mg/L | 4 mg/L | 2 mg/L | 2 mg/L | 0.25 mg/L | 0.06 mg/L | 0.015 mg/L
Cc1cc2nc(C(O)[C@@H](CCc3ccccc3)NC(=O)[C@@H]3C[C@@H](NC(=O)CN)CN3)oc2cc1C (mixture of isomers) [Compound M64, (2S,4R)-4-(2-Aminoacetamido)-N-[(1R)-1-[(RS)-(5,6-dimethyl-2-benzoxazoly)hydroxymethyl]-3-pheylpropyl]-2-pyrrolidinecarboxamide] | 4 mg/L | 4 mg/L | 4 mg/L | 4 mg/L | 4 mg/L | 4 mg/L | 4 mg/L | 0.015 mg/L
CCc1ccc2ncc(NC(=O)[C@@H](CCc3ccccc3)NC(=O)[C@H]3C[C@H](CN)CN3)cc2c1 [Compound M14, (2R,4R)-4-(Aminomethyl)-N-[(1R)-3-phenyl-1-(6-ethyl-3-quiolylcarbamoyl)propyl]-2-pyrrolidinecarboxamide] | 4 mg/L | 4 mg/L | 4 mg/L | 2 mg/L | 0.03 mg/L | 0.03 mg/L | 0.03 mg/L | 
NCC(=O)N[C@H]1CN[C@@H](C(=O)N[C@H](Cc2ccc(F)cc2)C(=O)Nc2cnc3ccccc3c2)C1 [Compound M20, (2R,4R)-4-(2-Aminoacetamideo)-N-[(1R)-2-(4-fluorophenyl)-1-(3-quinolylcarbamoyl)ethyl]-2-pyrrolidinecarboxamide] | 4 mg/L | 4 mg/L | 4 mg/L | 4 mg/L | 2 mg/L | 0.50 mg/L | 0.125 mg/L | 0.015 mg/L
CC(C)(C)c1ccc2ncc(NC(=O)[C@H]3C[C@H](CN)CN3)cc2c1 [Compound M97, (2R,4R)-4-(Aminomethyl)-N-[6-(1,1-dimethyl)ethyl-3-quiolyl]-2-pyrrolidinecarboxamide] | 4 mg/L | 4 mg/L | 4 mg/L | 2 mg/L | 0.5 mg/L | 0.125 mg/L | 0.015 mg/L | 0.008 mg/L
Cc1ccc2ncc(C(=O)NC[C@@H](CCc3ccccc3)NC(=O)[C@H]3C[C@H](CN)CN3)cc2c1 [Compound M63, (2R,4R)-4-(Aminomethyl)-N-[(1R)-3-phenyl-1-[(6-methyl-3-quinolylcarboxamido)methyl]propyl]-2-pyrrolidinecaroxamide] | 4 mg/L | 4 mg/L | 4 mg/L | 4 mg/L | 2 mg/L | 1 mg/L | 0.008 mg/L | 0.015 mg/L
NC[C@@H]1CN[C@@H](C(=O)N[C@H](CCc2ccccc2)C(=O)Nc2cccc3cccnc23)C1 [Compound M30, (2R,4R)-4-(Aminomethyl)-N-[(1R)-3-pheyl-1-(8-quinolylcarbamoyl)propyl]-2-pyrrolidinecarboxamide] | 4 mg/L | 4 mg/L | 4 mg/L | 4 mg/L | 4 mg/L | 2 mg/L | 0.03 mg/L | 0.015 mg/L
